In ChEMBL document CHEMBL4190241, “Isolation of Premyrsinane, Myrsinane, and Tigliane Diterpenoids from Euphorbia pithyusa Using a Chikungunya Virus Cell-Based Assay and Analogue Annotation by Molecular Networking” (J Nat Prod, 2017) one finds CC50, EC50 and selectivity ratio data, which are given here for eleven compounds.

Data set [1] in a line: Cytotoxicity against African green monkey Vero A cells assessed as reduction in cell viability after 6 to 7 days by MTS assay. It is filed as cell-based. The settings on record: chlorocebus sabaeus. For orientation: Tetrazolium dyes change colour on reduction, which living cells bring about.
Another data set relates to Chikungunya virus. The experiment in a line: Antiviral activity against Chikungunya virus Indian ocean strain 899 infected in African green monkey Vero A cells assessed as reduction in viral-induced cytopathic effect after 6 to 7 days by MTS/PMS assay. The data set is classed as functional, organism-based. The settings on record: Indian ocean 899, Vero. Background: Damage to the host cells serves as the signal in cytopathic effect assays.

Data set [2] is described as follows: Selectivity index, ratio of CC50 for African green monkey Vero A cells to EC50 for Chikungunya virus Indian ocean strain 899 infected in African green monkey Vero A cells. The data set is classed as toxicity. The settings on record: read-out: Ratio CC50/EC50.

As for `C=C(C)C1C=C[C@@H](OC(C)=O)[C@@]23CO[C@@](C)([C@H](OC(=O)c4ccccc4)[C@@]4(O)C[C@H](C)[C@H](OC(=O)CC)[C@@H]4[C@H]2OC(C)=O)[C@H]13` (stereo partly specified), in data set [1], the half-maximal cytotoxic concentration (CC50) (commonly the concentration giving 50% cytotoxicity) is 158 µM. Further, in the data set on Chikungunya virus, the concentration for a half-maximal effect (EC50) – broadly, the concentration giving half of the maximal effect – was 84 µM. In addition, the selectivity ratio in data set [2] came to 1.9.
On the same counts, the results for `CC(=O)OC[C@]12[C@H](OC(=O)c3ccccc3)[C@H]3[C@@H](OC(C)=O)[C@@H](C)C[C@]3(O)C(=O)[C@@](C)(OC(C)=O)[C@@H]1[C@@H]1[C@H](C[C@H]2OC(C)=O)C1(C)C` are 171 µM, 78 µM and 2.2.
On the same counts, the results for `CC(=O)OCC1=C[C@H]2[C@@H]3C(C)(C)[C@]3(OC(=O)C(C)C(C)C)C[C@@H](C)[C@]2(O)[C@@H]2C=C(C)C(=O)[C@H]2C1` (stereo partly specified) are 42.7 µM, 4 µM and 10.6.
Take `CCC(=O)O[C@@H]1[C@@H]2[C@@H](OC(=O)c3ccccc3)[C@]3(COC(C)=O)[C@H](O)C[C@H]4[C@@H]([C@H]3[C@](C)(O)C(=O)[C@@]2(OC(C)=O)C[C@@H]1C)C4(C)C`: the cytotoxic concentration (CC50) in data set [1] amounted to 63.5 µM. The EC50 in the data set with Chikungunya virus came to 11 µM. In addition, the selectivity ratio in data set [2] is 5.8.
On to `CCC(=O)O[C@@H]1[C@@H]2[C@@H](OC(=O)c3ccccc3)[C@@]3(COC(C)=O)[C@@H]([C@@H]4[C@H](C[C@H]3OC(C)=O)C4(C)C)[C@](C)(CC(C)=O)C(=O)[C@@]2(O)C[C@@H]1C`, for which the concentration for a half-maximal effect (EC50) in the data set with Chikungunya virus is greater than 144 µM.
On to `CCC(=O)O[C@@H]1[C@@H]2[C@@H](OC(=O)c3ccccc3)[C@@]3(COC(C)=O)[C@@H]([C@@H]4[C@H](C[C@H]3OC(C)=O)C4(C)C)[C@](C)(OC(=O)c3cccnc3)C(=O)[C@@]2(O)C[C@@H]1C`, for which the cytotoxic concentration (CC50) in data set [1] was greater than 159 µM. Also, the half-maximal effective concentration (EC50) in the data set with Chikungunya virus is greater than 107 µM. Also, in data set [2], the selectivity ratio was less than 2.4.
For the compound `CCC(=O)O[C@@H]1[C@@H]2[C@@H](OC(=O)C(C)CC)[C@@]3(COC(C)=O)[C@@H]([C@@H]4[C@H](C[C@H]3OC(C)=O)C4(C)C)[C@](C)(OC(C)=O)C(=O)[C@@]2(O)C[C@@H]1C` (stereo partly specified), the CC50 in data set [1] came to 153 µM. In the data set with Chikungunya virus, the EC50 amounted to 107 µM. The selectivity ratio in data set [2] was 2.2.
On to `CC(=O)OC[C@]12[C@H](OC(=O)c3ccccc3)[C@H]3[C@@H](OC(C)=O)[C@@H](C)C[C@]3(OC(C)=O)C(=O)[C@@](C)(O)[C@@H]1[C@@H]1[C@H](C[C@H]2OC(C)=O)C1(C)C`, for which the EC50 in the data set on Chikungunya virus is greater than 152 µM.
For the compound `CCC(C)C(=O)O[C@@H]1[C@H]2[C@@H](OC(C)=O)[C@@H](C)C[C@]2(O)C(=O)[C@@](C)(OC(C)=O)[C@@H]2[C@@H]3[C@H](C[C@@H](OC(C)=O)[C@@]12COC(C)=O)C3(C)C` (stereo partly specified), in data set [1], the CC50 was greater than 157 µM. In addition, the EC50 in the data set with Chikungunya virus was greater than 50 µM. Besides, the selectivity ratio in data set [2] is less than 5.
On to `CC(=O)OCC1=C[C@H]2[C@@H]3C(C)(C)[C@]3(OC(=O)C(C)C(C)C)C[C@@H](C)[C@]2(O)[C@@H]2C=C(C)C(=O)[C@@H]2C1` (stereo partly specified), for which, in the data set on Chikungunya virus, the half-maximal effective concentration (EC50) was greater than 11 µM.
As for `CCN(CC)CCCC(C)Nc1ccnc2cc(Cl)ccc12` (stereo unspecified) [CHLOROQUINE], in data set [1], the cytotoxic concentration (CC50) worked out at 89 µM. For the same compound, the EC50 in the data set with Chikungunya virus is 11 µM.
